Experiments:
[1] = molecular target: bovine slow myosin subfragment 1 (slow S1, masseter) (Bos taurus, UniProt Q9BE39); assay: biochemical
[2] = tested on: bovine fast myosin subfragment 1 (fast S1, cutaneous trunci)
purified protein = substrate: O=P(O)(O)OP(=O)(O)OP(=O)(O)O; assay: purified protein; conditions: Mg2+

Chain of bovine slow myosin subfragment 1 (slow S1, masseter) (P85100 2-199 partner, one chain of several): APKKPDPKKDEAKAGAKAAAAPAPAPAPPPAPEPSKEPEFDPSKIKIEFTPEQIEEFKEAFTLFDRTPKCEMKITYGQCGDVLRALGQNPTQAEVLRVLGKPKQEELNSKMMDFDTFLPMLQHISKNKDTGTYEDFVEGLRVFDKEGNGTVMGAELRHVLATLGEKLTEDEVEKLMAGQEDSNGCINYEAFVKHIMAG

Molecule O=P(O)(O)OP(=O)(O)O [PPi, pyrophosphate] has a Ki [1] of 18 ± 1.8 µM and a Ki [2] of 88 ± 6.9 µM.

B1: bovine slow myosin subfragment 1 (slow S1, masseter) (Bos taurus) (protein)
chain: MVDAEMAAFGEAAPYLRKSEKERLEAQTRPFDLKKDVFVPDDKEEFVKATILSREGGKVTAETEHGKTVTVKEDQVLQQNPPKFDKIEDMAMLTFLHEPAVLYNLKERYASWMIYTYSGLFCVTINPYKWLPVYNAEVVAAYRGKKRSEAPPHIFSISDNAYQYMLTDRENQSILITGESGAGKTVNTKRVIQYFAVIAAIGDRSKKEQATGKGTLEDQIIQANPALEAFGNAKTVRNDNSSRFGKFIRIHFGATGKLASADIETYLLEKSRVIFQLKAERDYHIFYQILSNKKPELLDMLLITNNPYDYAFISQGETTVASIDDAEELMATDNAFDVLGFTTEEKNSMYKLTGAIMHFGNMKFKLKQREEQAEPDGTEEADKSAYLMGLNSADLLKGLCHPRVKVGNEYVTKGQNVQQVVYAKGALAKAVYERMFNWMVTRINATLETKQPRQYFIGVLDIAGFEIFDFNSFEQLCINFTNEKLQQFFNHHMFVLEQEEYKKEGIEWEFIDFGMDLQACIDLIEKPMGIMSILEEECMFPKATDMTFKAKLFDNHLGKSSNFQKPRNIKGKPEAHFSLIHYAGTVDYNIIGWLQKNKDPLNETVVDLYKKSSLKMLSSLFANYAGFDTPIEKGKGKAKKGSSFQTVSALHRENLNKLMTNLRSTHPHFVRCIIPNETKSPGVIDNPLVMHQLRCNGVLEGIRICRKGFPNRILYGDFRQRYRILNPAAIPEGQFIDSRKGAEKLLGSLDIDHNQYKFGHTKVFFKAGLLGLLEEMRDERLSRIITRIQAQSRGVLSRMEFKKLLERRDSLLIIQWNIRAFMGVKNWPWMKLYFKIKPLL
Molecule B1 has a Km (purified protein) of 380 ± 130 µM.
